Test results: publication PMC12807533 (Science (New York, N.Y.), 2025)

Tests used:
XanP (His-XanP) = tested on: T1, XanP (His-XanP)
T1 construct: gene XOC_0142
T1 sequence (G7TIV3 32-261 limits assumed): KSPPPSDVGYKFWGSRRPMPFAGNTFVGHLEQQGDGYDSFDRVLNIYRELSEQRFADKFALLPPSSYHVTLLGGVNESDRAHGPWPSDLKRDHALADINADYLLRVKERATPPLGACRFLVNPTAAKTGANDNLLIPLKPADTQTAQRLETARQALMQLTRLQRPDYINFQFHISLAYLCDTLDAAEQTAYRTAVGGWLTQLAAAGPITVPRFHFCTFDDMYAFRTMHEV

Chain of AvrBs2 (AvrBs2-FLAG) (G7TIV7 1-714): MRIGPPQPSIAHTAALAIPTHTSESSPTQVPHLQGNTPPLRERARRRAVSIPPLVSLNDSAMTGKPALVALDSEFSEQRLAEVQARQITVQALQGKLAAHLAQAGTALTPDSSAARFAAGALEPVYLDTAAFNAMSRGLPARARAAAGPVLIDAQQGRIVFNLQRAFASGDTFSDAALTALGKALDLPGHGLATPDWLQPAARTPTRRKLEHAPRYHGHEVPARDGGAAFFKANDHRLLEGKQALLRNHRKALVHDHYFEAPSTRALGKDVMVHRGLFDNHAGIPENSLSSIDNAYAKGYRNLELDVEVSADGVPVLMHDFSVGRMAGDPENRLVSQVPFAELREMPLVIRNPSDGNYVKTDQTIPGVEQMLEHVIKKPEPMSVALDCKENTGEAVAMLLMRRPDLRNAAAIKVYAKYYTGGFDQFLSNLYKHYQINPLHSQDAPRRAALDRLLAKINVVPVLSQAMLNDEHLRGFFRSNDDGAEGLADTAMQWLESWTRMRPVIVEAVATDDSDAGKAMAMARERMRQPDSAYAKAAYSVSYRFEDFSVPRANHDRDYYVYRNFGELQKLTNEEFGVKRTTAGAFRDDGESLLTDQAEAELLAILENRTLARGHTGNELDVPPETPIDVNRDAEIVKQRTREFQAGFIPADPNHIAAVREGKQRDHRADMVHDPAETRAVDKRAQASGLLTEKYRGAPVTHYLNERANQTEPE

Row | SMILES | TLC of hydrolysis products (XanP (His-XanP)) | TLC and HILIC-ESI-MS of in vitro xanthosan synthesis (AvrBs2 (AvrBs2-FLAG))
1 | O=P(O)(O)O[C@H]1O[C@H](CO)[C@H](O)[C@H](O)[C@H]1O [Gal-1-P] | the other product migrated similarly to Gal-1-P, but not Gal-6-P | 
2 | O=P1(O)OC[C@H]2O[C@H](OP(=O)(O)OC[C@H]3O[C@H](O1)[C@H](O)[C@@H](O)[C@H]3O)[C@H](O)[C@@H](O)[C@H]2O [xanthosan, bis-(1,6)-cyclic dimeric α-D-galactose-phosphate] |  | AvrBs2 converts UDP-α-D-galactose into xanthosan
